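Dose response: 5 concentrations. Exposure: 48 h. Format: 96-well plates. Endpoint: linear interpolation; highest concentration if not reached. At the TGI there is no net growth.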
Experiments:
Assay in all cases: inhibition of tumour cell growth, NCI panel, 48 h
786-0 renal = system: 786-0 renal
A498 renal = system: A498 renal
A549 NSCLC = system: A549 NSCLC
ACHN renal = system: ACHN renal
CAKI-1 renal = system: CAKI-1 renal
CCRF-CEM leukemia = system: CCRF-CEM leukemia
DLD-1 colon = system: DLD-1 colon
DMS 114 small cell lung = system: DMS 114 small cell lung
DMS 273 small cell lung = system: DMS 273 small cell lung
EKVX NSCLC = system: EKVX NSCLC
HCT-116 colon = system: HCT-116 colon
HL-60(TB) leukemia = system: HL-60(TB) leukemia
HOP-62 NSCLC = system: HOP-62 NSCLC
HOP-92 NSCLC = system: HOP-92 NSCLC
HT29 colon = system: HT29 colon
IGROV1 ovarian = system: IGROV1 ovarian
K-562 leukemia = system: K-562 leukemia
KM12 colon = system: KM12 colon
KM20L2 colon = system: KM20L2 colon
LXFL 529 NSCLC = system: LXFL 529 NSCLC
M14 melanoma = system: M14 melanoma
M19-MEL melanoma = system: M19-MEL melanoma
MOLT-4 leukemia = system: MOLT-4 leukemia
NCI-H226 lung = system: NCI-H226 lung
NCI-H23 lung = system: NCI-H23 lung
NCI-H460 lung = system: NCI-H460 lung
NCI-H522 lung = system: NCI-H522 lung
OVCAR-3 ovarian = system: OVCAR-3 ovarian
OVCAR-4 ovarian = system: OVCAR-4 ovarian
OVCAR-5 ovarian = system: OVCAR-5 ovarian
OVCAR-8 ovarian = system: OVCAR-8 ovarian
RXF 393 renal = system: RXF 393 renal
SF-268 CNS = system: SF-268 CNS
SF-295 CNS = system: SF-295 CNS
SF-539 CNS = system: SF-539 CNS
SK-MEL-2 melanoma = system: SK-MEL-2 melanoma
SK-MEL-28 melanoma = system: SK-MEL-28 melanoma
SK-MEL-5 melanoma = system: SK-MEL-5 melanoma
SK-OV-3 ovarian = system: SK-OV-3 ovarian
SN12C renal = system: SN12C renal
SNB-19 CNS = system: SNB-19 CNS
SNB-75 CNS = system: SNB-75 CNS
SNB-78 CNS = system: SNB-78 CNS
SR leukemia = system: SR leukemia
SW-620 colon = system: SW-620 colon
TK-10 renal = system: TK-10 renal
U251 CNS = system: U251 CNS
UACC-257 melanoma = system: UACC-257 melanoma
UACC-62 melanoma = system: UACC-62 melanoma
UO-31 renal = system: UO-31 renal
XF 498 CNS = system: XF 498 CNS
LOX IMVI melanoma = system: LOX IMVI melanoma
MALME-3M melanoma = system: MALME-3M melanoma

Measured: TGI

O=C1c2cc3c(cc2[C@@H]2NC4CCCC14O2)OCO3 (stereo partly drawn)
not listed: LOX IMVI melanoma | MALME-3M melanoma
> 100 µM: all other assays above

COc1cc(OC)c(C#N)c(OC)c1C
not listed: HCT-116 colon | IGROV1 ovarian | M14 melanoma | NCI-H522 lung | OVCAR-3 ovarian | SNB-75 CNS
> 100 µM: all other assays above

From PubChem BioAssay (NCI)
